Our source for the Ki values is ChEMBL document CHEMBL1130770, “Solid phase synthesis of benzylamine-derived sulfonamide library” (Bioorg Med Chem Lett, 1998).

Structures are written as SMILES. pKi: −log10 of the molar value.

This test has as its target Prothrombin (Homo sapiens, UniProt P00734). The test is described as follows: Inhibition constant was evaluated for inhibitory activity against the blood coagulant thrombin.

`NCc1ccc(C[C@H](NS(=O)(=O)c2ccc3ccccc3c2)C(=O)N2CCC(O)CC2)cc1` gave a pKi of 4.81. The compound `CC(C)NC(=O)[C@H](Cc1ccc(CN)cc1)NS(=O)(=O)c1ccc2ccccc2c1` gave a pKi of 4.50.

`CN(C)C(=O)[C@H](Cc1ccc(CN)cc1)NS(=O)(=O)c1ccc2ccccc2c1` had a pKi of 5.51.

Regarding `NCc1ccc(C[C@H](NS(=O)(=O)c2ccc3ccccc3c2)C(=O)NCc2ccccc2)cc1`, the pKi is 4.01. With `CC(C)N(C)C(=O)[C@H](Cc1ccc(CN)cc1)NS(=O)(=O)c1ccc2ccccc2c1` the figure was 6.22; with `CN(C(=O)[C@H](Cc1ccc(CN)cc1)NS(=O)(=O)c1ccc2ccccc2c1)C1CCCC1`, 7.30.

`CCCc1ccc(S(=O)(=O)N[C@@H](Cc2ccc(CN)cc2)C(=O)N(C)C2CCCC2)cc1` showed a negative logarithm of the Ki (pKi) of 8.00. With `NCc1ccc(C[C@H](NS(=O)(=O)c2ccc3ccccc3c2)C(=O)N2CCCC2)cc1` the figure was 6.70.
